Literature values in US8748589B2, “Complex crystalline sugar comprising D-psicose and D-allose and process for production of the same” (priority 2005, dated 2014).

Test system: L-rhamnose isomerase
Settings: for inhibition of L-rhamnose isomerase activity by coexisting chelating agent: chelating agent present at the time of measurement of the activity

Row | Structure (SMILES) | inhibition of L-rhamnose isomerase activity by coexisting chelating agent | inhibition of L-rhamnose isomerase activity by metal ion (1 mM cobalt ion)
1 | O=C(O)CN(CCN(CC(=O)O)CC(=O)O)CC(=O)O [EDTA] | Almost no activity was inhibited | –
2 | O=C(O)CN(CCOCCOCCN(CC(=O)O)CC(=O)O)CC(=O)O [EGTA] | Almost no activity was inhibited | –
3 | [Co+2] [cobalt ion] | – | About 30%
